Target: mutant CFTR (Homo sapiens, UniProt P13569)
Assay: Fluorescence assay for CFTR activity (halide-sensitive YFP, HS-YFP)
Type: cell-based
Conditions: CFBE41o- and FRT cells with stable expression of mutant CFTR
Description: Mutant CFTR activity was determined with the functional assay based on the halide-sensitive yellow fluorescent protein, HS—YFP (Galietta et al., FEBS Lett 499:220-224, 2001). CFBE41o- and FRT cells with stable expression of mutant CFTR and HS—YFP were plated on clear-bottom 96-well black microplates (Code 3603, Corning Life Sciences) at a density of 50,000 cells/well and kept at 37° C. in 5% CO2 for 24 hours.
For the corrector assay, cells were treated for further 24 hours with test compounds, vehicle (DMSO), or the positive control VX-809. After treatment, the culture medium was removed and cells in each well were stimulated for 30 min at 37° C. with 60 μL PBS (containing 137 mM NaCl, 2.7 mM KCl, 8.1 mM Na2HPO4, 1.5 mM KH2PO4, 1 mM CaCl2, and 0.5 mM MgCl2) plus forskolin (20 μM) and genistein (50 μM).
For determination of potentiator activity on F508del-CFTR, cells were incubated for 24 hours at 27° C. to allow trafficking of the mutant protein to plasma membrane. Cells were then stimulated with for 30 min with PBS containing forskolin (20 μM) plus the compound to be tested at the desired concentration. For determination of potentiator activity on G551D-CFTR or G1349D-CFTR, cells were directly stimulated with forskolin plus test compound without previous incubation at low temperature. At the time of assay, microplates carrying CFBE41o- or FRT cells were transferred to microplate readers (BMG Labtech) equipped with high-quality excitation (HQ500/20×: 500±10 nm) and emission (HQ535/30M: 535±15 nm) filters for YFP (Chroma Technology). The assay consisted of a continuous 14 s fluorescence reading with 2 s before and 12 s after injection of an iodide-containing solution (165 μL of a modified PBS containing I^− instead of Cl^−; final I^− concentration in the well: 100 mM). Data were normalized to the initial background-subtracted fluorescence. Enhanced CFTR activity, induced by correctors and/or potentiators, results in accelerated I^− influx that in turn causes faster HS—YFP quenching (Pedemonte et al., Mol Pharmacol 68:1736-1746, 2005; Pedemonte et al., J Clin Invest 115:2564-2571, […]). To determine fluorescence quenching rate associated with I^− influx, the final 10 s of data for each well were fitted with an exponential function to extrapolate initial slope (dF/dt).
EC50 obtained are illustrated in Table 1 wherein+: EC50>2 μM; ++: 1.0 μM <EC50<2 μM; +++: EC50<1 μM.

mutant CFTR, sequence (P13569 with tags, fused parts or gaps DEL508-508): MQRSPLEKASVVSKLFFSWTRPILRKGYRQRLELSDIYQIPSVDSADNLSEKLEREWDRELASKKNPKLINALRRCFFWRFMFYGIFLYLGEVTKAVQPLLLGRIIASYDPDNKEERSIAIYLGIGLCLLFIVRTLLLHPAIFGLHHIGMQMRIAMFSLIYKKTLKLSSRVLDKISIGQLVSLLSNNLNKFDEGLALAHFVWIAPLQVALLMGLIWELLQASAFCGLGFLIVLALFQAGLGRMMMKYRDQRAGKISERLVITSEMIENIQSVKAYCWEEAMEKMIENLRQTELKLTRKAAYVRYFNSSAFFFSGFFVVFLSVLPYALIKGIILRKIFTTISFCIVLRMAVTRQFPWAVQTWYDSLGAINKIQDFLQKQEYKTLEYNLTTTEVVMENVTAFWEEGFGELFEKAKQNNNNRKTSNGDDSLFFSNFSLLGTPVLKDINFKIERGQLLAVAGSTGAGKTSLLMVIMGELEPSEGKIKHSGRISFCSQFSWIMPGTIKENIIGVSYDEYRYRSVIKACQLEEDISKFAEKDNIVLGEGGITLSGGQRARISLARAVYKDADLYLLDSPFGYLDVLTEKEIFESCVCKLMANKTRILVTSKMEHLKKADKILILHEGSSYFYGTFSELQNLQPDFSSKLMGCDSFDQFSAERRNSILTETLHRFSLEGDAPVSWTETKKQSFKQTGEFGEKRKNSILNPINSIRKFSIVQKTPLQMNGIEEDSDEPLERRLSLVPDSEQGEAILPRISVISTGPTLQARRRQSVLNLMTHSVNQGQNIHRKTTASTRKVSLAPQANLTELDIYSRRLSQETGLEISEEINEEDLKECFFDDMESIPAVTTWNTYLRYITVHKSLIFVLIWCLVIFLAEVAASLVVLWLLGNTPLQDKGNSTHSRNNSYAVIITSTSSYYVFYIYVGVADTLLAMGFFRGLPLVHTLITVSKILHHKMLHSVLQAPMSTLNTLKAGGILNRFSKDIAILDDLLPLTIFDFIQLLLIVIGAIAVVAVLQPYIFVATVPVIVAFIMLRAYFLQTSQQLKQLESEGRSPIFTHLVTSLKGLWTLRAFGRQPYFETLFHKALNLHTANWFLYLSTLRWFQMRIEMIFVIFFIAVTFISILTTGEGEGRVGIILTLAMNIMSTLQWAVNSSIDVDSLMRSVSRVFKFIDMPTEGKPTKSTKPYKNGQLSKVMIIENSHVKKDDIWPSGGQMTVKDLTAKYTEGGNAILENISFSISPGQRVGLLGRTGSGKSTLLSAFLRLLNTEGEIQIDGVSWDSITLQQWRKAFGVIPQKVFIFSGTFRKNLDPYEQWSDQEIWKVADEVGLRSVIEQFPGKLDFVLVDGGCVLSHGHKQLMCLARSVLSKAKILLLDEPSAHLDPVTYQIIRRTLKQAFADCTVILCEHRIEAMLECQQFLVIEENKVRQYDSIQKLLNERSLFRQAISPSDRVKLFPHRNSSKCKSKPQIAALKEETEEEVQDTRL

| Structure (SMILES) | EC50 [nM] |
| --- | --- |
| Cc1cc(S(=O)(=O)N2CCOC(c3c(C(=O)NCCO)sc4ccccc34)C2)ccc1F (racemic) [compound 029, rac-3-[4-(4-fluoro-3-methyl-phenyl)sulfonylmorpholin-2-yl]-N-(2-hydroxyethyl)benzothiophene-2-carboxamide] | > 2000 |
| NC(=O)c1sc2ccccc2c1C1CN(S(=O)(=O)C2CCOCC2)CCO1 (racemic) [compound 058, rac-3-[4-tetrahydropyran-4-ylsulfonylmorpholin-2-yl]benzothiophene-2-carboxamide] | > 2000 |
| NC(=O)c1sc2ccccc2c1C1CN(S(=O)(=O)c2ccc(Oc3ccncc3)cc2)CCO1 (racemic) [compound 024, rac-3-[4-[4-(4-pyridyloxy)phenyl]sulfonylmorpholin-2-yl]benzothiophene-2-carboxamide] | > 2000 |
| Cc1cc(C)c(S(=O)(=O)N2CCOC(c3c(C(N)=O)sc4ccccc34)C2)c(C)c1 (racemic) [compound 032, rac-3-[4-(2,4,6-trimethylphenyl)sulfonylmorpholin-2-yl]benzothiophene-2-carboxamide] | > 2000 |
| CC(C)(C)c1ccc(S(=O)(=O)N2CCOC(c3c(C(N)=O)sc4ccccc34)C2)cc1 (racemic) [compound 036, rac-3-[4-(4-tert-butylphenyl)sulfonylmorpholin-2-yl]benzothiophene-2-carboxamide] | < 1000 |
| O=C(NCCO)c1sc2ccccc2c1C1CN(S(=O)(=O)c2ccccc2)CCO1 (centres unmarked) [compound 080, N-(2-hydroxyethyl)-3-[4-(phenylsulfonyl)-2-morpholinyl]-1-benzothiophene-2-carboxamide] | > 2000 |
| Cc1nc2ccc(S(=O)(=O)N3CCO[C@@H](c4c(C(N)=O)sc5ccccc45)C3)cc2o1 (single isomer, unassigned) [compound 070] | > 2000 |
| NC(=O)c1sc2ccccc2c1C1CN(S(=O)(=O)c2ccc(F)c(C(F)(F)F)c2)CCO1 (racemic) [compound 038, rac-3-[4-[4-fluoro-3-(trifluoromethyl)phenyl]sulfonylmorpholin-2-yl]benzothiophene-2-carboxamide] | > 2000 |
| COc1ccc(Oc2ccc(S(=O)(=O)N3CCOC(c4c(C(N)=O)sc5ccccc45)C3)cc2)cc1 (racemic) [compound 019, rac-3-[4-[4-(4-methoxyphenoxy)phenyl]sulfonylmorpholin-2-yl]benzothiophene-2-carboxamide] | > 2000 |
| NC(=O)c1sc2ccccc2c1C1CN(S(=O)(=O)c2cccc(C(F)(F)F)c2)CCO1 (racemic) [compound 035, rac-3-[4-[3-(trifluoromethyl)phenyl]sulfonylmorpholin-2-yl]benzothiophene-2-carboxamide] | < 1000 |
| NC(=O)c1sc2ccccc2c1C1CN(S(=O)(=O)c2ccsc2)CCO1 (racemic) [compound 005, rac-3-[4-(3-thienylsulfonyl)morpholin-2-yl]benzothiophene-2-carboxamide] | > 2000 |
| N#Cc1ccc(S(=O)(=O)N2CCOC(c3c(C(N)=O)sc4ccccc34)C2)cc1 (racemic) [compound 037, rac-3-[4-(4-cyanophenyl)sulfonylmorpholin-2-yl]benzothiophene-2-carboxamide] | > 2000 |
| NC(=O)c1sc2ccccc2c1C1CN(S(=O)(=O)c2ccc(N3CCCC3=O)cc2)CCO1 (racemic) [compound 015, rac-3-[4-[4-(2-oxopyrrolidin-1-yl)phenyl]sulfonylmorpholin-2-yl]benzothiophene-2-carboxamide] | > 2000 |
| Cc1cc(S(=O)(=O)N2CCOC(c3c(C(=O)NC(C)C)sc4ccccc34)C2)ccc1F (racemic) [compound 031, rac-3-[4-(4-fluoro-3-methyl-phenyl)sulfonylmorpholin-2-yl]-N-isopropyl-benzothiophene-2-carboxamide] | > 2000 |
| NC(=O)C1=C(C2CN(S(=O)(=O)c3ccc(C(F)(F)F)c(F)c3)CCO2)c2ccccc2S1(=O)=O (racemic) [compound 074, rac-1,1-dioxo-3-[4-[3-fluoro-4-(trifluoromethyl)phenyl]sulfonylmorpholin-2-yl]benzothiophene-2-carboxamide] | < 1000 |
| CC(C)(C)OC(=O)N1CCC(S(=O)(=O)N2CCOC(c3c(C(N)=O)sc4ccccc34)C2)CC1 (racemic) [compound 064, rac-tert-butyl 4-[2-(2-carbamoylbenzothiophen-3-yl)morpholin-4-yl]sulfonylpiperidine-1-carboxylate] | > 2000 |
| CNC(=O)c1sc2ccccc2c1C1CN(S(=O)(=O)C2CCCC2)CCO1 (centres unmarked) [compound 081, 3-(4-cyclopentanesulfonyl-morpholin-2-yl)-benzo[b]thiophene-2-carboxylic acid methylamide] | > 2000 |

Further lines, results first:

| EC50 [nM] | Structure (SMILES) |
| --- | --- |
| > 2000 | NC(=O)c1sc2ccccc2c1C1CN(S(=O)(=O)c2ccc3ccccc3c2)CCO1 (racemic) [compound 052, rac-3-[4-(2-naphthylsulfonyl)morpholin-2-yl]benzothiophene-2-carboxamide] |
| > 2000 | COc1ccccc1S(=O)(=O)N1CCOC(c2c(C(N)=O)sc3ccccc23)C1 (racemic) [compound 050, rac-3-[4-(2-methoxyphenyl)sulfonylmorpholin-2-yl]benzothiophene-2-carboxamide] |
| < 1000 | Cc1ccc(S(=O)(=O)N2CCOC(c3c(C(N)=O)sc4ccccc34)C2)cc1 (racemic) [compound 033, rac-3-[4-(p-tolylsulfonyl)morpholin-2-yl]benzothiophene-2-carboxamide] |
| > 2000 | NC(=O)c1sc2ccccc2c1C1CN(S(=O)(=O)c2ccccc2OC(F)(F)F)CCO1 (racemic) [compound 067, rac-3-[4-[2-(trifluoromethoxy)phenyl]sulfonylmorpholin-2-yl]benzothiophene-2-carboxamide] |
| < 1000 | Cc1ccc(S(=O)(=O)N2CCO[C@H](c3c(C(N)=O)sc4ccccc34)C2)cc1F (single isomer, unassigned) [compound 073] |
| > 2000 | COC(=O)c1ccc(S(=O)(=O)N2CCOC(c3c(C(N)=O)sc4ccccc34)C2)cc1 (racemic) [compound 063, rac-methyl 4-[2-(2-carbamoylbenzothiophen-3-yl)morpholin-4-yl]sulfonylbenzoate] |
| > 2000 | N#Cc1cccc(S(=O)(=O)N2CCOC(c3c(C(N)=O)sc4ccccc34)C2)c1 (racemic) [compound 062, rac-3-[4-(3-cyanophenyl)sulfonylmorpholin-2-yl]benzothiophene-2-carboxamide] |
| > 2000 | NC(=O)c1sc2ccccc2c1C1CN(S(=O)(=O)c2ccc(O)cc2)CCO1 (racemic) [compound 068, rac-3-[4-(4-hydroxyphenyl)sulfonylmorpholin-2-yl]benzothiophene-2-carboxamide] |
| > 2000 | Cc1ccc(F)cc1S(=O)(=O)N1CCOC(c2c(C(N)=O)sc3ccccc23)C1 (racemic) [compound 027, rac-3-[4-(5-fluoro-2-methyl-phenyl)sulfonylmorpholin-2-yl]benzothiophene-2-carboxamide] |
| < 1000 | Cc1ccc(S(=O)(=O)N2CCOC(c3c(C(N)=O)sc4ccccc34)C2)cc1F (racemic) [compound 026, rac-3-[4-(3-fluoro-4-methyl-phenyl)sulfonylmorpholin-2-yl]benzothiophene-2-carboxamide] |
| > 2000 | COc1cccc(S(=O)(=O)N2CCOC(c3c(C(N)=O)sc4ccccc34)C2)c1 (racemic) [compound 048, rac-3-[4-(3-methoxyphenyl)sulfonylmorpholin-2-yl]benzothiophene-2-carboxamide] |
| 1000 to 2000 | NC(=O)c1sc2ccccc2c1C1CN(S(=O)(=O)c2ccc(Cl)cc2)CCO1 (racemic) [compound 040, rac-3-[4-(4-chlorophenyl)sulfonylmorpholin-2-yl]benzothiophene-2-carboxamide] |
| > 2000 | NC(=O)c1sc2ccccc2c1C1CN(S(=O)(=O)c2ccc(F)cc2)CCO1 (racemic) [compound 022, rac-3-[4-(4-fluorophenyl)sulfonylmorpholin-2-yl]benzothiophene-2-carboxamide] |
| 1000 to 2000 | COc1cc(S(=O)(=O)N2CCOC(c3c(C(N)=O)sc4ccccc34)C2)ccc1C(F)(F)F (racemic) [compound 045, rac-3-[4-[3-methoxy-4-(trifluoromethyl)phenyl]sulfonylmorpholin-2-yl]benzothiophene-2-carboxamide] |
| > 2000 | NC(=O)c1sc2ccccc2c1C1CN(S(=O)(=O)c2ccccc2)CCO1 (racemic) [compound 003, rac-3-[4-(benzenesulfonyl)morpholin-2-yl]benzothiophene-2-carboxamide] |

Source: patent US12391680B2, “Compounds and compositions for the treatment of cystic fibrosis” (FONDAZIONE ISTITUTO ITALIANO DI TECNOLOGIA, priority 2019, dated 2025)
